Measured values reported in PMC3666986 (Clinical Medicine Insights. Pediatrics, 2010).
Entries after “also recorded” stand apart in the source; their conditions may differ. Read-outs that look alike come from different tables or passages of the source.

Tests used:
glucocorticoid receptor = settings: receptor affinity of dexamethasone = 100; cited from earlier work
[1] = assay type: in vivo, human; settings: for AUC: AUCτ, des-CIC in serum, Day 7, τ 24 h, mean ± SEM, N 29; for systemic accumulation: once daily administration of ciclesonide to children, with or without spacer; for time serum concentration detectable/observed after inhalation: present study, treatment not specified (discussion)
[2] = cited from earlier work
[3] = cited from earlier work; remark: listed apart in the source
[4] = adults, ciclesonide via HFA-MDI with AeroChamber Plus; cited from earlier work
[5] = Advair HFA; cited from earlier work
[6] = Safety and tolerability monitoring; assay type: in vivo, human
Pulmonary function tests = assay type: in vivo, human
[7] = healthy subjects and patients with asthma; cited from earlier work
[8] = des-CIC, Treatment A 160 μg with spacer / Treatment C 160 μg no spacer, ANOVA
[9] = des-CIC, ciclesonide 80 μg with spacer vs 160 μg without spacer
[10] = des-CIC, ciclesonide 160 μg with spacer vs 160 μg without spacer

Structure (SMILES): C[C@@H]1C[C@H]2[C@@H]3CCC4=CC(=O)C=C[C@]4(C)[C@@]3(F)[C@@H](O)C[C@]2(C)[C@@]1(O)C(=O)CO [dexamethasone]
- relative glucocorticoid receptor affinity (glucocorticoid receptor): 100

Structure (SMILES): C[C@]12C=CC(=O)C=C1CC[C@@H]1[C@@H]2[C@@H](O)C[C@@]2(C)[C@H]1C[C@H]1O[C@@H](C3CCCCC3)O[C@]12C(=O)CO [des-CIC, desisobutyryl-ciclesonide]
- time up to which serum concentrations were detectable ([1]; des-CIC, 80 μg ciclesonide (Treatment B), LLOQ 0.01 μg/L): up to 6 h
- time up to which serum concentration-time profile curves were obtained ([1]; des-CIC, 160 μg ciclesonide (Treatment A and Treatment C), LLOQ 0.01 μg/L): up to 12 h
- AUCτ Ratio [% Ref] [1, 8]: 127 % Ref
- Cmax Ratio [% Ref] [1, 8]: 155 % Ref
- dose-normalized Cmax higher with spacer than without spacer [1, 9]: 63%
- dose-normalized systemic exposure (AUCτ) higher with spacer than without spacer [1, 9]: 26%
- dose-normalized Cmax higher with spacer than without spacer [1, 10]: 55%
- dose-normalized systemic exposure (AUCτ) higher with spacer than without spacer [1, 10]: 27%
- AUC ([1]; human, serum, inhaled, 80 ug, Treatment B 80 μg CIC with spacer): 0.316 ± 0.022 ng·h/mL
- AUC ([1]; human, serum, inhaled, 160 ug, Treatment C 160 μg CIC no spacer): 0.542 ± 0.042 ng·h/mL
- Tmax ([1]; human, serum, inhaled, tmax, des-CIC, similar for all treatments): 42 min
- systemic accumulation [1]: does not lead to systemic accumulation
- time serum concentration detectable/observed after inhalation [1]: up to 12 h
- relative glucocorticoid receptor affinity (glucocorticoid receptor): 1200
- oral bioavailability [2]: less than 1%
- bound to plasma protein [3]: About 99%
- effect of spacer on PK [4]: did not influence the PK

Structure (SMILES): CCC(=O)O[C@]1(C(=O)SCF)[C@H](C)C[C@H]2[C@@H]3C[C@H](F)C4=CC(=O)C=C[C@]4(C)[C@@]3(F)[C@@H](O)C[C@@]21C [fluticasone propionate]
- increase of AUC0–last with spacer [5]: 406%
- increase of Cmax with spacer [5]: 210%

Structure (SMILES): CC(C)C(=O)OCC(=O)[C@@]12O[C@H](C3CCCCC3)O[C@@H]1C[C@H]1[C@@H]3CCC4=CC(=O)C=C[C@]4(C)[C@H]3[C@@H](O)C[C@@]12C [ciclesonide]
- systemic accumulation [1]: does not lead to systemic accumulation
- time up to which serum concentrations were detectable ([1]; parent ciclesonide, Treatment A and C (160 μg), LLOQ 0.01 μg/L): up to 3 h
- time up to which serum concentrations were measurable ([1]; parent ciclesonide, Treatment B (80 μg with spacer), LLOQ 0.01 μg/L): up to 1.5 h
- time serum concentration detectable/observed after inhalation [1]: about 3 h
- relation of AEs to study medication ([6]; assessed by investigator and sponsor): not related
- tolerability ([6]; ciclesonide 80 or 160 μg once daily, 7-day periods, with or without spacer): well tolerated
- number of patients reporting AEs ([6]; during the three treatment periods, 37 patients): 24
- clinically relevant abnormalities (laboratory values) / adverse drug reactions ([6]; whole study): No clinically relevant abnormalities or adverse drug reactions; also recorded: No clinically relevant abnormalities
- change in lung function (Pulmonary function tests; between screening, Day 7 of each treatment period, and study end): did not change to any relevant extent
- FEV1 at study end (Pulmonary function tests; mean ± SD, screening value 1.81 ± 0.44): 1.76 ± 0.42 L
- oral bioavailability [2]: < 1%
- bound to plasma protein [3]: About 99%
- lung deposition [7]: more than 50%
